The term IC50 denotes the concentration that gives 50% inhibition. Read a high IC50 as a need for much substance.

In ChEMBL document CHEMBL1129390, “Synthesis and solution conformation of cyclo[RGDRGD]: a cyclic peptide with selectivity for the alpha V beta 3 receptor” (J Med Chem, 1996) one finds IC50 data, which are given here for four compounds.

This assay concerns the target Integrin alpha-V/beta-3 (Homo sapiens, UniProt P05106+P06756). Description: Inhibition of alphaV-beta3 interaction with vitronectin. In kind it is protein-complex assay.

The structures appear in SMILES notation. Square brackets hold non-standard residues; d marks the D form. Peptide text beside a SMILES is read from it. NMeR = CN[C@@H](CCCNC(=N)N)C(=O)O; 3Amb = NCc1cccc(C(=O)O)c1; dAbu = CC[C@@H](N)C(=O)O

Integrin alpha-V/beta-3, sequence (P05106 27-788 limits assumed): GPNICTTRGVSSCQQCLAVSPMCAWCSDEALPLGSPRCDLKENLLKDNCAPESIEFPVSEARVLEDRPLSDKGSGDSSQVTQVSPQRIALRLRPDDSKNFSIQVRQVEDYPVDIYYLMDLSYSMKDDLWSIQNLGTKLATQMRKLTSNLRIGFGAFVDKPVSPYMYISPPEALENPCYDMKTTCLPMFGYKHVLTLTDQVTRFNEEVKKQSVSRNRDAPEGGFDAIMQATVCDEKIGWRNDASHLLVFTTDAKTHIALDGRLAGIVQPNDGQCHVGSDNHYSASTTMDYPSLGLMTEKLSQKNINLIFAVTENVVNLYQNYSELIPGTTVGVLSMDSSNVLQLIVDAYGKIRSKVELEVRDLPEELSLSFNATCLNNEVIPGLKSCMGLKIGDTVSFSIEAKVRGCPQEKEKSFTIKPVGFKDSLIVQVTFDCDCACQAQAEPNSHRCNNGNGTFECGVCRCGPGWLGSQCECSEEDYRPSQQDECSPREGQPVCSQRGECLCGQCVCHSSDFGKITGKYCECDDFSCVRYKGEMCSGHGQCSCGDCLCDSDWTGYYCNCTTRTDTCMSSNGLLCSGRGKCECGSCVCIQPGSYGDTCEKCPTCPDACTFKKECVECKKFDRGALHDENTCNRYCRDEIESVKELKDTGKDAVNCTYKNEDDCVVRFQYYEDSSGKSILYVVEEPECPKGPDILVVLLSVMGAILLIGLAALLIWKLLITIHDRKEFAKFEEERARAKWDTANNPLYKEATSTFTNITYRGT
Integrin alpha-V/beta-3, sequence (P06756 31-889 limits assumed): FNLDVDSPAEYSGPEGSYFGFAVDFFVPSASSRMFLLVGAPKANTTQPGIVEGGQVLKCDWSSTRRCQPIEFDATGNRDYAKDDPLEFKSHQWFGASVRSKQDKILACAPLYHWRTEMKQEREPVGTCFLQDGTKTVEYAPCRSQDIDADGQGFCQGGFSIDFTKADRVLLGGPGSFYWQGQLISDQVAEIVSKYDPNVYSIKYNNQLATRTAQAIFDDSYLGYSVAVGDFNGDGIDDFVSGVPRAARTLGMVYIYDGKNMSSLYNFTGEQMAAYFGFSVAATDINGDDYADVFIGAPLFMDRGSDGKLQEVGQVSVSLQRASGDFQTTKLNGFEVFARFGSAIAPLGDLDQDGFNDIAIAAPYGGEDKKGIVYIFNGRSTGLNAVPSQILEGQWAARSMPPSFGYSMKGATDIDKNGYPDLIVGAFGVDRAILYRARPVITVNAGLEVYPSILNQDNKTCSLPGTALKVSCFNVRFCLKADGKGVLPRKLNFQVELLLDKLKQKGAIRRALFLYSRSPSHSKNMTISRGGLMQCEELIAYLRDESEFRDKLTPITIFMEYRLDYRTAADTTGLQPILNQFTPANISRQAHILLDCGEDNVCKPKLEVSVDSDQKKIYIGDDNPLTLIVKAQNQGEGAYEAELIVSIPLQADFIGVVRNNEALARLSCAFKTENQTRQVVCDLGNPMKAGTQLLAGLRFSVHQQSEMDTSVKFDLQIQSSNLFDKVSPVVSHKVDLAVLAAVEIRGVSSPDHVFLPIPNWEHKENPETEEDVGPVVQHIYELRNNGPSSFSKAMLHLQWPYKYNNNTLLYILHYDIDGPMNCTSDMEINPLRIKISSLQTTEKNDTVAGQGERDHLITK
Integrin alpha-V/beta-3, sequence (P06756 891-1048 limits assumed): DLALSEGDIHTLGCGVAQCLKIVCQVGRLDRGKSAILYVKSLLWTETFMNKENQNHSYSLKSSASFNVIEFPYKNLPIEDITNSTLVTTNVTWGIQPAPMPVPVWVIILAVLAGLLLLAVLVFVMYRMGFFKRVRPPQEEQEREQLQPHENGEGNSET

In the case of `N=C(N)NCCC[C@@H]1NC(=O)[C@H](CC(=O)O)NC(=O)CNC(=O)[C@H](CCCNC(=N)N)NC(=O)[C@H](CC(=O)O)NC(=O)CNC1=O`, the IC50 stood at 140 nM. That is a sub-micromolar value. For the compound `NC(N)=NCCC[C@H](NC(=O)[C@H](CC(=O)O)NC(=O)CNC(=O)[C@@H](N)CCCN=C(N)N)C(=O)NCC(=O)N[C@@H](CC(=O)O)C(=O)O` (H-RGDRGD-OH), 70 nM corresponded to half-maximal inhibition (IC50). Compound `N=C(N)NCCC[C@@H]1NC(=O)[C@H](CC(=O)O)NC(=O)CNC(=O)[C@H](CCCNC(=N)N)NC(=O)[C@@H](CC(=O)O)NC(=O)CNC1=O` had a concentration for half-maximal inhibition (IC50) of 320 nM. Turning to `CC[C@H]1NC(=O)c2cccc(c2)CNC(=O)[C@H](CC(=O)O)NC(=O)CNC(=O)[C@H](CCCN=C(N)N)N(C)C1=O` (cyclo([NMeR]GD[3Amb][dAbu])), the IC50 is above 10000 nM.
